Target: T1, Exon1-Q46 protein aggregates (MBP-HTT(1-89)Q46-His(6×)) (Homo sapiens, UniProt P42858, INS38QQQQQQQQQQQQQQQQQQQQQQQQQ)
T1 construct: MBP-HTT(1-89)Q46-His(6×); MBP (N, cleaved yes); His(6×) (C); made in house
Assay: Exon1-Q46 radioligand binding assay (RBA)
Conditions: displacement of 0.3 nM [3H3-methyl]-5-((5-methoxypyridin-2-yl)methoxy)-2-(pyrazin-2-yl)benzo[d]oxazole; 1 μM Exon1-Q46 aggregates; read-out: Potency Range
Method: Exon1-Q46 Radioligand Binding Assay
For radioligand binding assays (RBA), MBP-HTT(1-89)Q46-His(6×) (“Exon1-Q46”) protein was generated based on a previous publication (Scherzinger et al. Cell, Vol. 90, 549-558, Aug. 8, 1997). For experiments, 30 μM MBP-Exon1-Q46 was incubated with 150 μg/mL thrombin in assay buffer (150 mM NaCl, 50 mM Tris pH 8.0) and 2 mM CaCl2 for 16 hours at 37° C. Aggregated Exon1-Q46 was pelleted by centrifugation for 5 minutes at 13,000 rpm in a bench top centrifuge and re-dissolved in the same volume of assay buffer. Test compounds were prepared by titration in DMSO at 11 concentrations from 63 μM to 2 nM. For the RBA, Exon1-Q46 protein aggregates and test compounds were pre-incubated in assay buffer for 20 minutes at room temperature, in 100 μL/well in a 96-well plate (pp, round bottom). Then, ligand was added in 50 µL/well and incubated for 60 minutes at 37° C. Final assay concentrations were […] test compound, 1 μM Exon1-Q46 protein (equivalent monomer concentration), and 0.3 nM ligand [^3H3-methyl]-5-((5-methoxypyridin-2-yl)methoxy)-2-(pyrazin-2-yl)benzo[d]oxazole. Samples were transferred onto GF/B filter plates and washed 2× with 200 μL PBS using a Filtermate Harvester. After drying filter plates for 1 hour at 55° C., the back of the plates were sealed with foil and 30 μL/well scintillation fluid (Packard MicroScint 40) added, incubated for 15 minutes in the dark, and counted in a MicroBeta reader. For analysis, replicate data from independent assay plates were normalized towards 0% and 100% inhibition using control wells of vehicle (0% inhibition) and […] unlabelled [^3H3-methyl]-5-((5-methoxypyridin-2-yl)methoxy)-2-(pyrazin-2-yl)benzo[d]oxazole (100% inhibition). IC50 values were determined with a sigmoidal inhibition model with four variables (top, bottom, slope, IC50) in a global fit using the normalized replicate data.
The results for various example compounds were as provided in the table below (+++<100 nM; ++100-500 nM; +>500 nM; ND: not determined): […]

T1 sequence (P42858 with tags, fused parts or gaps with the stated changes limits assumed): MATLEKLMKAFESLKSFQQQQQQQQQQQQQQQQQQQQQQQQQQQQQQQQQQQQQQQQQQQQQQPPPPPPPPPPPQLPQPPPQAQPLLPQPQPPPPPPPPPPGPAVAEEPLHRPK

| IC50 [nM] | Compound |
| --- | --- |
| < 100 | COc1ccc(COc2cnc3oc(-c4cc(C)ncn4)nc3c2)nc1 [Compound 4-1, 4-{6-[(5-Methoxypyridin-2-yl)methoxy]-[1,3]oxazolo[5,4-b]pyridin-2-yl}-6-methylpyrimidine] |
| < 100 | [2H]C([2H])(F)C([2H])([2H])Oc1ccc(COc2cnc3oc(-c4cc(C)ncn4)nc3c2)nc1 [Compound 1-1, 6-((5-(2-Fluoroethoxy-1,1,2,2-d4)pyridin-2-yl)methoxy)-2-(6-methyl-pyrimidin-4-yl)oxazolo[5,4-b]pyridine] |
| < 100 | Cc1ccc(S(=O)(=O)OCCOc2ccc(COc3cnc4oc(-c5cc(C)ncn5)nc4c3)nc2)cc1 [Compound 1-2, 2-((6-(((2-(6-Methylpyrimidin-4-yl)oxazolo[5,4-b]pyridin-6-yl)oxy)-methyl)pyridin-3-yl)oxy)ethyl 4-methylbenzenesulfonate] |
| < 100 | COc1ccc(COc2cnc3oc(-c4ccnc(C)n4)nc3c2)nc1 [Compound 2-1] |
| < 100 | C=CCOc1ccc(COc2cnc3oc(-c4cc(C)ncn4)nc3c2)nc1 [Compound 5-2, 6-((5-(Allyloxy)pyridin-2-yl)methoxy)-2-(6-methylpyrimidin-4-yl) oxazolo[5,4-b]pyridine] |
| < 100 | Cc1cc(-c2nc3cc(OCc4ccc(OCCF)cn4)cnc3o2)ncn1 [Compound 5-1, 6-((5-(2-Fluoroethoxy)pyridin-2-yl)methoxy)-2-(6-methylpyrimidin-4-yl) oxazolo[5,4-b]pyridine] |
| < 100 | COc1cnc(COc2cnc3oc(-c4cc(C)ncn4)nc3c2)c(F)c1 [Compound 1-3, 6-((3-Fluoro-5-methoxypyridin-2-yl)methoxy)-2-(6-methylpyrimidin-4-yl)oxazolo[5,4-b]pyridine] |
| < 100 | COc1ccc(COc2cnc3oc(-c4cc(OCCF)ncn4)nc3c2)nc1 [Compound 3-1, 4-(2-Fluoroethoxy)-6-{6-[(5-methoxypyridin-2-yl)methoxy]-[1,3]oxazolo[5,4-b]pyridin-2-yl}pyrimidine] |
| < 100 | Cc1cc(-c2nc3cc(OCc4ccc(OCF)cn4)cnc3o2)ncn1 [Compound 5-3, 6-((5-(Fluoromethoxy)pyridin-2-yl)methoxy)-2-(6-methylpyrimidin-4-yl) oxazolo[5,4-b]pyridine] |
